# Source: ChEMBL document CHEMBL1201862, “PubChem BioAssay data set” (2004)
#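 Cultured in 96-well plates, cells were exposed to test compound for 48 hours across five concentrations. The concentration for 50% growth inhibition is given as GI50.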 Active and inactive are the calls of the source. Rule as the data show it: active = GI50 up to about 1.1 µM and inactive = higher.
# Experiments:
# Test in all cases: NCI tumour cell line growth inhibition, 48 h
# [1] = test system: UACC-62
# [2] = test system: HL-60
# [3] = test system: HCC 2998
# [4] = test system: OVCAR-5
# [5] = test system: EKVX
# [6] = test system: KM12
# [7] = test system: DU-145
# [8] = test system: M14
# [9] = test system: OVCAR-4
# [10] = test system: SK-OV-3
# [11] = test system: OVCAR-8
# [12] = test system: NCI-H23
# [13] = test system: K562
# [14] = test system: SR
# [15] = test system: UO-31
# [16] = test system: MOLT-4
# [17] = test system: ACHN
# [18] = test system: SF-539
# [19] = test system: A498
# [20] = test system: 786-0
SMILES,GI50 [1],GI50 [2],GI50 [3],GI50 [4],GI50 [5],GI50 [6],GI50 [7],GI50 [8],GI50 [9],GI50 [10],GI50 [11],GI50 [12],GI50 [13],GI50 [14],GI50 [15],GI50 [16],GI50 [17],GI50 [18],GI50 [19],GI50 [20]
O=c1c2ccccc2n2c(S)nnc2n1-c1ccccc1,> 100 µM (inactive),> 100 µM (inactive),> 100 µM (inactive),> 100 µM (inactive),> 100 µM (inactive),> 100 µM (inactive),> 100 µM (inactive),> 100 µM (inactive),> 100 µM (inactive),> 100 µM (inactive),> 100 µM (inactive),> 100 µM (inactive),> 100 µM (inactive),> 100 µM (inactive),> 100 µM (inactive),> 100 µM (inactive),> 100 µM (inactive),> 100 µM (inactive),> 100 µM (inactive),> 100 µM (inactive)
CCc1nc2ccc(NCCN(C)C)c3c(=O)c4ccccc4n1c23,2.14 µM (inactive),1.75 µM (inactive),0.762 µM (active),1.67 µM (inactive),1.17 µM (inactive),0.701 µM (active),0.656 µM (active),1.52 µM (inactive),1.02 µM (active),1.69 µM (inactive),0.515 µM (active),1.16 µM (inactive),0.468 µM (active),0.193 µM (active),1.24 µM (inactive),0.175 µM (active),0.417 µM (active),1.67 µM (inactive),2.54 µM (inactive),0.479 µM (active)
CCCCCCc1nn2c(-c3ccncc3)nnc2s1,> 10 µM (inactive),> 10 µM (inactive),> 10 µM (inactive),> 10 µM (inactive),> 10 µM (inactive),> 10 µM (inactive),> 10 µM (inactive),> 10 µM (inactive),> 10 µM (inactive),> 10 µM (inactive),> 10 µM (inactive),> 10 µM (inactive),> 10 µM (inactive),> 10 µM (inactive),1.42 µM (inactive),> 10 µM (inactive),> 10 µM (inactive),> 10 µM (inactive),> 10 µM (inactive),> 10 µM (inactive)
CC1=NN(C(=O)CC(=O)Nc2cccc(C)c2)C(=O)C1/N=N\c1ccc(S(=O)(=O)c2ccc(/N=N/C3C(=O)N(C(=O)CC(=O)Nc4cccc(C)c4)N=C3C)cc2)cc1 (stereo not given),> 100 µM (inactive),> 100 µM (inactive),> 100 µM (inactive),> 100 µM (inactive),> 100 µM (inactive),> 100 µM (inactive),> 100 µM (inactive),> 100 µM (inactive),> 100 µM (inactive),> 100 µM (inactive),> 100 µM (inactive),> 100 µM (inactive),> 100 µM (inactive),> 100 µM (inactive),> 100 µM (inactive),> 100 µM (inactive),> 100 µM (inactive),> 100 µM (inactive),> 100 µM (inactive),> 100 µM (inactive)
CC(=O)OCC1OC(O[C@@H]2C[C@H]3C(C)(C)[C@H](OC(C)=O)CC[C@]3(C)[C@H]3CC[C@@]45C[C@H](O)C[C@H](C)[C@@H]4CC=C5[C@@]32C)C(O)C(O)C1O (stereo not given in full),4.12 µM (inactive),1.84 µM (inactive),2.03 µM (inactive),2.18 µM (inactive),7.69 µM (inactive),2.38 µM (inactive),8.28 µM (inactive),4.06 µM (inactive),4.21 µM (inactive),9.12 µM (inactive),4.83 µM (inactive),4.56 µM (inactive),2.61 µM (inactive),2.07 µM (inactive),13.1 µM (inactive),2.32 µM (inactive),6.05 µM (inactive),6.59 µM (inactive),6.67 µM (inactive),3.83 µM (inactive)
C1=CC2C=CC(C=C1)P2c1ccccc1 (stereo not given),> 100 µM (inactive),> 100 µM (inactive),0.0175 µM (active),> 100 µM (inactive),> 100 µM (inactive),> 100 µM (inactive),> 100 µM (inactive),> 100 µM (inactive),> 100 µM (inactive),> 100 µM (inactive),> 100 µM (inactive),> 100 µM (inactive),> 100 µM (inactive),> 100 µM (inactive),> 100 µM (inactive),> 100 µM (inactive),> 100 µM (inactive),> 100 µM (inactive),> 100 µM (inactive),> 100 µM (inactive)
O/N=C(/C(Cl)=C(Cl)Cl)C(Cl)Cl,24.7 µM (inactive),8.28 µM (inactive),31.4 µM (inactive),25.9 µM (inactive),42.5 µM (inactive),22.4 µM (inactive),29.6 µM (inactive),20.2 µM (inactive),16.7 µM (inactive),28.8 µM (inactive),23.9 µM (inactive),14.9 µM (inactive),13.3 µM (inactive),10.8 µM (inactive),20.9 µM (inactive),15.9 µM (inactive),17.9 µM (inactive),21.5 µM (inactive),> 100 µM (inactive),18.7 µM (inactive)
O=C1C(N2CCOCC2)=C(Cl)C(=O)c2ncccc21,2.33 µM (inactive),0.212 µM (active),> 6 µM (inactive),> 10 µM (inactive),> 10 µM (inactive),> 3.84 µM (inactive),> 6.73 µM (inactive),2.37 µM (inactive),1.56 µM (inactive),> 10 µM (inactive),2.61 µM (inactive),1.6 µM (inactive),1.39 µM (inactive),0.778 µM (active),4.23 µM (inactive),0.443 µM (active),1.85 µM (inactive),4.89 µM (inactive),8.32 µM (inactive),1.84 µM (inactive)
C[n+]1cccc2ccc3cccnc3c21,55.3 µM (inactive),> 100 µM (inactive),49.2 µM (inactive),82 µM (inactive),6.84 µM (inactive),9.08 µM (inactive),49.9 µM (inactive),44.7 µM (inactive),33.8 µM (inactive),47.6 µM (inactive),12.3 µM (inactive),18.2 µM (inactive),> 100 µM (inactive),> 100 µM (inactive),21.8 µM (inactive),> 100 µM (inactive),20.9 µM (inactive),48 µM (inactive),32.5 µM (inactive),63.5 µM (inactive)
Clc1ccc(C(Cc2cccc(Cl)c2)c2c(Cl)nc(N3CCNCC3)nc2Cl)cc1 (stereo not given),19.5 µM (inactive),11.1 µM (inactive),15.1 µM (inactive),12.5 µM (inactive),0.128 µM (active),13.9 µM (inactive),19.7 µM (inactive),13.4 µM (inactive),16.5 µM (inactive),13.7 µM (inactive),19.1 µM (inactive),19 µM (inactive),12.6 µM (inactive),5.38 µM (inactive),12.9 µM (inactive),12.2 µM (inactive),15.5 µM (inactive),19.5 µM (inactive),15.2 µM (inactive),14.4 µM (inactive)
CCO/N=C\c1ccc2oc(-c3ccccc3)cc(=O)c2c1,0.194 µM (active),0.135 µM (active),0.31 µM (active),2.56 µM (inactive),3.03 µM (inactive),0.0522 µM (active),0.502 µM (active),0.172 µM (active),5.51 µM (inactive),0.474 µM (active),0.465 µM (active),0.476 µM (active),0.034 µM (active),< 0.0135 µM (active),0.394 µM (active),0.121 µM (active),1.51 µM (inactive),0.168 µM (active),0.312 µM (active),0.501 µM (active)
COC(=O)c1ccccc1NC(=S)NN(C)C,> 100 µM (inactive),> 100 µM (inactive),> 100 µM (inactive),> 100 µM (inactive),> 100 µM (inactive),> 100 µM (inactive),> 100 µM (inactive),> 100 µM (inactive),> 100 µM (inactive),> 100 µM (inactive),> 100 µM (inactive),> 100 µM (inactive),> 100 µM (inactive),> 100 µM (inactive),> 100 µM (inactive),> 100 µM (inactive),> 100 µM (inactive),> 100 µM (inactive),> 100 µM (inactive),> 100 µM (inactive)
CC1(C)OC[C@@H](/C=C\CCO[Si](c2ccccc2)(c2ccccc2)C(C)(C)C)N1C(=O)c1ccccc1,9.91 µM (inactive),2.51 µM (inactive),7.46 µM (inactive),16.3 µM (inactive),5.75 µM (inactive),7.96 µM (inactive),18.8 µM (inactive),7.08 µM (inactive),7.76 µM (inactive),48.2 µM (inactive),15.8 µM (inactive),4.61 µM (inactive),3.1 µM (inactive),2.79 µM (inactive),11.9 µM (inactive),3.13 µM (inactive),12.3 µM (inactive),18.3 µM (inactive),13.9 µM (inactive),11.6 µM (inactive)
O=C(/C(=C/c1cccs1)c1ccccc1)c1ccccc1,> 100 µM (inactive),47.4 µM (inactive),> 100 µM (inactive),> 100 µM (inactive),> 100 µM (inactive),> 100 µM (inactive),> 100 µM (inactive),> 100 µM (inactive),35.2 µM (inactive),> 100 µM (inactive),> 100 µM (inactive),76.6 µM (inactive),> 100 µM (inactive),34.3 µM (inactive),> 100 µM (inactive),82.4 µM (inactive),39.4 µM (inactive),17.5 µM (inactive),> 100 µM (inactive),26.2 µM (inactive)
